# In ChEMBL document CHEMBL1671662, “In vitro activities of telavancin and six comparator agents against anaerobic bacterial isolates” (2009):
# Key:
# Clostridium tertium = experiment: Antibacterial activity against Clostridium tertium by CLSI M11-A6 agar dilution method; type: functional
# Prevotella buccae = experiment: Antibacterial activity against Prevotella buccae by CLSI M11-A6 agar dilution method; type: functional; settings: Segatella buccae
# Anaerococcus tetradius = experiment: Antibacterial activity against Anaerococcus tetradius by CLSI M11-A6 agar dilution method; type: functional
# Thomasclavelia ramosa = experiment: Antibacterial activity against Clostridium ramosum by CLSI M11-A6 agar dilution method; type: functional
# Ruminococcus albus = experiment: Antibacterial activity against Ruminococcus albus by CLSI M11-A6 agar dilution method; type: functional; settings: Hominimerdicola alba
# [1] = test system: Paraclostridium bifermentans; experiment: Antibacterial activity against Clostridium bifermentans by CLSI M11-A6 agar dilution method; type: functional
# Phocaeicola vulgatus = experiment: Antibacterial activity against Bacteroides vulgatus by CLSI M11-A6 agar dilution method; type: functional
# Bifidobacterium breve = experiment: Antibacterial activity against Bifidobacterium breve by CLSI M11-A6 agar dilution method; type: functional
# Clostridium sporogenes = experiment: Antibacterial activity against Clostridium sporogenes by CLSI M11-A6 agar dilution method; type: functional
# Ruminococcus torques = experiment: Antibacterial activity against Ruminococcus torques by CLSI M11-A6 agar dilution method; type: functional; settings: Mediterraneibacter torques
# [2] = test system: Ruminococcus flavefaciens; experiment: Antibacterial activity against Ruminococcus flavefaciens by CLSI M11-A6 agar dilution method; type: functional
# [3] = test system: Bifidobacterium adolescentis; experiment: Antibacterial activity against Bifidobacterium adolescentis by CLSI M11-A6 agar dilution method; type: functional
# [4] = test system: Propionibacterium propionicum; experiment: Antibacterial activity against Propionibacterium propionicus by CLSI M11-A6 agar dilution method; type: functional; settings: Arachnia propionica
# Streptococcus anginosus = experiment: Antibacterial activity against Streptococcus anginosus by CLSI M11-A6 agar dilution method; type: functional
# [5] = test system: Peptoniphilus asaccharolyticus; experiment: Antibacterial activity against Peptoniphilus asaccharolyticus by CLSI M11-A6 agar dilution method; type: functional
# [6] = test system: Streptococcus constellatus; experiment: Antibacterial activity against Streptococcus constellatus by CLSI M11-A6 agar dilution method; type: functional
# Fusobacterium mortiferum = experiment: Antibacterial activity against Fusobacterium mortiferum by CLSI M11-A6 agar dilution method; type: functional
# Prevotella intermedia [7] = experiment: Antibacterial activity against Prevotella P intermedia by CLSI M11-A6 agar dilution method; type: functional
# Clostridium bartlettii = experiment: Antibacterial activity against Clostridium bartlettii by CLSI M11-A6 agar dilution method; type: functional; settings: Intestinibacter bartlettii
# Bifidobacterium dentium = experiment: Antibacterial activity against Bifidobacterium dentium by CLSI M11-A6 agar dilution method; type: functional
# Prevotella intermedia [8] = experiment: Antibacterial activity against Prevotella intermedia by CLSI M11-A6 agar dilution method; type: functional
# Clostridium spiroforme = experiment: Antibacterial activity against Clostridium spiroforme by CLSI M11-A6 agar dilution method; type: functional; settings: Thomasclavelia spiroformis
# [9] = Antibacterial activity against Bifidobacterium infantis by CLSI M11-A6 agar dilution method; type: functional, Bifidobacterium longum subsp. infantis; settings: Bifidobacterium longum
# Prevotella oris = experiment: Antibacterial activity against Prevotella oris by CLSI M11-A6 agar dilution method; type: functional; settings: Segatella oris
# Bacteroides fragilis = experiment: Antibacterial activity against Bacteroides fragilis by CLSI M11-A6 agar dilution method; type: functional
# Eggerthella lenta = experiment: Antibacterial activity against Eggerthella lenta by CLSI M11-A6 agar dilution method; type: functional
# [10] = test system: Prevotella melaninogenica; experiment: Antibacterial activity against Prevotella melaninogenica by CLSI M11-A6 agar dilution method; type: functional
# Finegoldia magna = experiment: Antibacterial activity against Finegoldia magna by CLSI M11-A6 agar dilution method; type: functional
# Clostridium = experiment: Antibacterial activity against Clostridium hypermegas by CLSI M11-A6 agar dilution method; type: functional
# Clostridium disporicum = experiment: Antibacterial activity against Clostridium disporicum by CLSI M11-A6 agar dilution method; type: functional
# [Clostridium] innocuum = Antibacterial activity against Clostridium innocuum by CLSI M11-A6 agar dilution method; type: functional
# Holdemania filiformis = experiment: Antibacterial activity against Holdemania filiformis by CLSI M11-A6 agar dilution method; type: functional
# Prevotella denticola = experiment: Antibacterial activity against Prevotella P denticola by CLSI M11-A6 agar dilution method; type: functional
# Bifidobacterium longum = experiment: Antibacterial activity against Bifidobacterium longum by CLSI M11-A6 agar dilution method; type: functional
# Hoylesella oralis = experiment: Antibacterial activity against Prevotella oralis by CLSI M11-A6 agar dilution method; type: functional
# Bifidobacterium bifidum = experiment: Antibacterial activity against Bifidobacterium bifidum by CLSI M11-A6 agar dilution method; type: functional
# Clostridium scindens = experiment: Antibacterial activity against Clostridium scindens by CLSI M11-A6 agar dilution method; type: functional
# [11] = test system: Bifidobacterium pseudolongum; experiment: Antibacterial activity against Bifidobacterium pseudolongum by CLSI M11-A6 agar dilution method; type: functional
# [12] = test system: Enterocloster clostridioformis; experiment: Antibacterial activity against Clostridium clostridioforme by CLSI M11-A6 agar dilution method; type: functional
smiles,measurement,setting,value
CCCCCCCCCCNCCN[C@@]1(C)C[C@H](O[C@H]2[C@H](Oc3c4cc5cc3Oc3ccc(cc3Cl)[C@@H](O)[C@@H](NC(=O)[C@@H](CC(C)C)NC)C(=O)N[C@@H](CC(N)=O)C(=O)N[C@H]5C(=O)N[C@H]3C(=O)N[C@H](C(=O)N[C@H](C(=O)O)c5cc(O)c(CNCP(=O)(O)O)c(O)c5-c5cc3ccc5O)[C@H](O)c3ccc(c(Cl)c3)O4)O[C@H](CO)[C@@H](O)[C@@H]2O)O[C@@H](C)[C@H]1O [TELAVANCIN],MIC50,Clostridium tertium,≤ 0.12 µg/mL
same,MIC90,Clostridium tertium,0.25 µg/mL
same,MIC50,Prevotella buccae,8 µg/mL
same,MIC90,Prevotella buccae,64 µg/mL
same,MIC50,Anaerococcus tetradius,≤ 0.12 µg/mL
same,MIC90,Anaerococcus tetradius,0.25 µg/mL
same,MIC,Thomasclavelia ramosa,0.25 µg/mL
same,MIC50,Thomasclavelia ramosa,0.25 µg/mL
same,MIC90,Thomasclavelia ramosa,0.25 µg/mL
same,MIC50,Ruminococcus albus,≤ 0.12 µg/mL
same,MIC90,Ruminococcus albus,≤ 0.12 µg/mL
same,MIC50,[1],≤ 0.12 µg/mL
same,MIC90,[1],0.25 µg/mL
same,MIC,Phocaeicola vulgatus,> 64 µg/mL
same,MIC50,Phocaeicola vulgatus,> 64 µg/mL
same,MIC90,Phocaeicola vulgatus,> 64 µg/mL
same,MIC50,Bifidobacterium breve,≤ 0.12 µg/mL
same,MIC90,Bifidobacterium breve,0.5 µg/mL
same,MIC50,Clostridium sporogenes,≤ 0.12 µg/mL
same,MIC90,Clostridium sporogenes,0.25 µg/mL
same,MIC50,Ruminococcus torques,≤ 0.12 µg/mL
same,MIC90,Ruminococcus torques,≤ 0.12 µg/mL
same,MIC50,[2],≤ 0.12 µg/mL
same,MIC90,[2],≤ 0.12 µg/mL
same,MIC50,[3],≤ 0.12 µg/mL
same,MIC90,[3],0.5 µg/mL
same,MIC50,[4],≤ 0.12 µg/mL
same,MIC90,[4],0.5 µg/mL
same,MIC50,Streptococcus anginosus,≤ 0.12 µg/mL
same,MIC90,Streptococcus anginosus,≤ 0.12 µg/mL
same,MIC50,[5],≤ 0.12 µg/mL
same,MIC90,[5],0.25 µg/mL
same,MIC50,[6],≤ 0.12 µg/mL
same,MIC90,[6],≤ 0.12 µg/mL
same,MIC50,Fusobacterium mortiferum,> 64 µg/mL
same,MIC90,Fusobacterium mortiferum,> 64 µg/mL
same,MIC50,Prevotella intermedia [7],8 µg/mL
same,MIC90,Prevotella intermedia [7],64 µg/mL
same,MIC50,Clostridium bartlettii,≤ 0.12 µg/mL
same,MIC90,Clostridium bartlettii,0.25 µg/mL
same,MIC50,Bifidobacterium dentium,≤ 0.12 µg/mL
same,MIC90,Bifidobacterium dentium,0.5 µg/mL
same,MIC50,Prevotella intermedia [8],8 µg/mL
same,MIC90,Prevotella intermedia [8],64 µg/mL
same,MIC50,Clostridium spiroforme,≤ 0.12 µg/mL
same,MIC90,Clostridium spiroforme,0.25 µg/mL
same,MIC50,[9],≤ 0.12 µg/mL
same,MIC90,[9],0.5 µg/mL
same,MIC50,Prevotella oris,8 µg/mL
same,MIC90,Prevotella oris,64 µg/mL
same,MIC,Bacteroides fragilis,> 64 µg/mL
same,MIC50,Bacteroides fragilis,> 64 µg/mL
same,MIC90,Bacteroides fragilis,> 64 µg/mL
same,MIC50,Eggerthella lenta,≤ 0.12 µg/mL
same,MIC90,Eggerthella lenta,0.5 µg/mL
same,MIC50,[10],8 µg/mL
same,MIC90,[10],64 µg/mL
same,MIC50,Finegoldia magna,≤ 0.12 µg/mL
same,MIC90,Finegoldia magna,0.25 µg/mL
same,MIC50,Clostridium,≤ 0.12 µg/mL
same,MIC90,Clostridium,0.25 µg/mL
same,MIC50,Clostridium disporicum,≤ 0.12 µg/mL
same,MIC90,Clostridium disporicum,0.25 µg/mL
same,MIC50,[Clostridium] innocuum,2 µg/mL
same,MIC90,[Clostridium] innocuum,2 µg/mL
same,MIC50,Holdemania filiformis,≤ 0.12 µg/mL
same,MIC90,Holdemania filiformis,0.5 µg/mL
same,MIC50,Prevotella denticola,8 µg/mL
same,MIC90,Prevotella denticola,64 µg/mL
same,MIC50,Bifidobacterium longum,≤ 0.12 µg/mL
same,MIC90,Bifidobacterium longum,0.5 µg/mL
same,MIC50,Hoylesella oralis,8 µg/mL
same,MIC90,Hoylesella oralis,64 µg/mL
same,MIC50,Bifidobacterium bifidum,≤ 0.12 µg/mL
same,MIC90,Bifidobacterium bifidum,0.5 µg/mL
same,MIC50,Clostridium scindens,≤ 0.12 µg/mL
same,MIC90,Clostridium scindens,0.25 µg/mL
same,MIC50,[11],≤ 0.12 µg/mL
same,MIC90,[11],0.5 µg/mL
same,MIC50,[12],4 µg/mL
same,MIC90,[12],8 µg/mL
